In publication PMC4024383 (European journal of medicinal chemistry, 2014):

Experiments:
Abl tyrosine kinase = target: T1, Abl tyrosine kinase (Homo sapiens, UniProt P00519); experiment: Abl radioactive kinase assay; format: biochemical
T1 sequence (P00519 229-512 limits assumed): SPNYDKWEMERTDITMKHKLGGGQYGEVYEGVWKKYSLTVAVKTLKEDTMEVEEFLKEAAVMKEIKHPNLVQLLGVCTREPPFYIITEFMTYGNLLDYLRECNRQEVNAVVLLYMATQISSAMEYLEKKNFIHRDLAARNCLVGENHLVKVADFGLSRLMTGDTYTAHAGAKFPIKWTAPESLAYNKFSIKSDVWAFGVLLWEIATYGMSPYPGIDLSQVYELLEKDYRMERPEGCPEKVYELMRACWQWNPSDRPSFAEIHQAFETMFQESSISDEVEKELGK

[1] = test system: P. falciparum gametocyte exflagellation; experiment: P. falciparum exflagellation assay; format: cell-based; conditions: Plasmodium falciparum, read-out: P. falciparum exflagellation inhibition EC50
recombinant PfCDPK4 = recombinant PfCDPK4 (Plasmodium falciparum, UniProt Q8IBS5); experiment: PfCDPK4 luminescence-based; format: biochemical; conditions: for fold more potent against PfCDPK4 than PfCDPK1: ratio of IC50s
[2] = Human cell growth inhibition assay; format: cell-based; conditions: CRL-8155 cells (lymphocytic)
[3] = Human cell growth inhibition assay; format: cell-based; conditions: HepG2 cells (liver)
Src kinase = experiment: Src radioactive kinase assay; conditions: ratio of IC50s
PfCDPK1 = PfCDPK1 enzymatic assay; format: biochemical, Plasmodium falciparum; conditions: ratio of IC50s

Chain of recombinant PfCDPK4 (Q8IBS5 whole entry): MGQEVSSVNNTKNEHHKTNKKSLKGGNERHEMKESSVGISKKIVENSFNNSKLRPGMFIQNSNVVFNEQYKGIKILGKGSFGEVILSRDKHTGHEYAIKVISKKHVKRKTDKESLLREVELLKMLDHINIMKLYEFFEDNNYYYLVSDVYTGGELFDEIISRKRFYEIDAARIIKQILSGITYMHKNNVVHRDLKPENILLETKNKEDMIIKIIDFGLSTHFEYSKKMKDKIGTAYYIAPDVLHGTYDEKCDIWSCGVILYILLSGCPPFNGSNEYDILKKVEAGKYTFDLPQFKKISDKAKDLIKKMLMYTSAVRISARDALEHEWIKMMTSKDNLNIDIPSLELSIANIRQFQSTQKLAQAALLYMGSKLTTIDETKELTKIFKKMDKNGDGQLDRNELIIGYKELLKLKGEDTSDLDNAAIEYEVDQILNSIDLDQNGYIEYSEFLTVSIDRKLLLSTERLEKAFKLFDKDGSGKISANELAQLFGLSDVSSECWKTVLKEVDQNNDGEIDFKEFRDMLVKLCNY

With `CCOc1ccc2cc(-c3nn(CC(C)C)c4ncnc(N)c34)ccc2c1` [17q, 3-(6-ethoxynaphthalen-2-yl)-1-isobutyl-1H-pyrazolo[3,4-d]pyrimidin-4-amine] the IC50 (Abl tyrosine kinase) was 2700 nM, the EC50 [1] was under 40 nM and the IC50 (recombinant PfCDPK4) was 14 nM. The “fold more potent against PfCDPK4 than i-Pr analog 17a” value (recombinant PfCDPK4; relative to 17a) was “more than 30 fold”, the GI50 [2] was over 30000 nM and the GI50 [3] was over 30000 nM.
For `CCOc1ccc2cc(-c3nn(CC4CNC4)c4ncnc(N)c34)ccc2c1` [17g, 1-(azetidin-3-ylmethyl)-3-(6-ethoxynaphthalen-2-yl)-1H-pyrazolo[3,4-d]pyrimidin-4-amine], the “selectivity for PfCDPK4 over Src” value (Src kinase) was “greater than 1300 fold”.
For `CC(C)n1nc(-c2ccc3nc(OCc4ccccc4)ccc3c2)c2c(N)ncnc21` [33a, 3-(2-(benzyloxy)quinolin-6-yl)-1-isopropyl-1H-pyrazolo[3,4-d]pyrimidin-4-amine], the “fold more potent against PfCDPK1 than PfCDPK4” value (PfCDPK1) was over 3 fold.
Molecule `Nc1ncnc2c1c(-c1ccc3cc(OC4CC4)ccc3c1)nn2CC1CCNCC1` [37j, 3-(6-cyclopropoxynaphthalen-2-yl)-1-(piperidin-4-ylmethyl)-1H-pyrazolo[3,4-d]pyrimidin-4-amine] has an EC50 [1] of under 40 nM, an IC50 (recombinant PfCDPK4) of 2 nM and a GI50 [2] of over 30000 nM. It also gave a GI50 [3] of over 30000 nM.
Work on `CCOc1ccc2cc(-c3nn(CC(C)(C)CO)c4ncnc(N)c34)ccc2n1` [30u, 3-(4-amino-3-(2-ethoxyquinolin-6-yl)-1H-pyrazolo[3,4-d]pyrimidin-1-yl)-2,2-dimethylpropan-1-ol] yielded an IC50 (Abl tyrosine kinase) of over 10000 nM, an EC50 [1] of under 40 nM and an IC50 (recombinant PfCDPK4) of 4 nM. The GI50 [2] was over 30000 nM and the GI50 [3] was over 30000 nM.
In the case of `CCOc1ccc2cc(-c3nn(C(C)C)c4ncnc(N)c34)cc(C)c2n1` [31a, 3-(2-ethoxy-8-methylquinolin-6-yl)-1-isopropyl-1H-pyrazolo[3,4-d]pyrimidin-4-amine], the “fold more potent against PfCDPK4 than PfCDPK1” value (recombinant PfCDPK4) is reported as over 5 fold.
For `CCOc1ccc2cc(-c3nn(C(C)C)c4ncnc(N)c34)ccc2n1` [30a, 3-(2-ethoxyquinolin-6-yl)-1-isopropyl-1H-pyrazolo[3,4-d]pyrimidin-4-amine], the IC50 (recombinant PfCDPK4) was under 20 nM and the “fold more potent against PfCDPK4 than PfCDPK1” value (recombinant PfCDPK4) was over 5 fold.
